Measurements published in US20050154536A1, “Two-part drug discovery system” (The University of Pittsburgh - of the Commonwealth System …, priority 2001, published 2005).

Experiments:
[1] = test system: LPS-stimulated RAW 264.7 murine macrophage-like cells; details: LPS-stimulated RAW 264.7 cells; concentration-dependent
RAW 264.7 cells = assay: Steady-state expression of TNF and iNOS transcripts in RAW 264.7 cells; format: cell-based, murine; details: RAW 264.7 cells incubated with LPS
C57B1/6 mice = assay: Endotoxemia protocol in C57B1/6 mice (LPS alone); format: in vivo
Protocol: Mice: All animal experiments were approved by the Institutional Animal Care and Use Committee of the University of Pittsburgh. All studies were carried out in C57B1/6 mice (6-10 wk old mice; Charles River Laboratories, Charles River, Me.).
Endotoxemia, in which LPS is directly introduced into an animal, is a highly reproducible means for inducing acute systemic inflammation. […] Circulating levels of TNF and IL-10 increase rapidly and decay quickly, whereas IL-6 levels peak at approximately 2-3 h and decay more slowly. The levels of NO, measured as the stable reaction product NO2^−NO3^−, remain elevated for 24 h. Levels of TNF and NO2^−/NO3^− seem to be saturated at 3 mg/kg whereas IL-6 and IL-10 saturate at 6mg/kg (FIG. 8): at 12 mg/kg (FIG. 9), the levels of most analytes are not much higher as compared to those of animals treated with 6 mg/kg LPS.

Row | Compound | concentration of NO2−/NO3− in supernatants [1] | concentration of TNF-α in supernatants [1] | steady-state expression of TNF transcripts (RAW 264.7 cells) | steady-state expression of iNOS transcripts (RAW 264.7 cells) | survival until final time point (C57B1/6 mice; LPS 3, 6 or 12 mg/kg intraperitoneally, 24 h following injection) | time of IL-6 peak level in circulation (C57B1/6 mice; LPS 3 or 6 mg/kg intraperitoneally) [h]
1 | NC(=O)C1=CN([C@@H]2O[C@H](COP(=O)(O)OP(=O)(O)OC[C@H]3O[C@@H](n4cnc5c(N)ncnc54)[C@H](O)[C@@H]3O)[C@@H](O)[C@H]2O)C=CC1 [NAD+, Reduced nicotinamide adenine dinucleotide] | decreased | decreased | decreased | decreased |  | 
2 | lipopolysaccharide [LPS] |  |  | markedly increased | markedly increased | All of the mice survived | 2 to 3
